According to patent US11692175B2, “Methods for generation of pluripotent and multipotent cells” (The USA, as represented by the Secretary, Dept. of Health …, priority 2012, dated 2023):
Where “and” joins values, the source holds several entries; their conditions need not be identical. Equal values may be shown once.

How the values were obtained:
Jurkat T cells = assay: c-Myc mRNA in Jurkat T cells treated with thrombospondin-1 or CD47-binding peptide (real time PCR); assay type: cell-based, human; settings: for c-Myc levels (FIG. 7E): CD47-binding peptide vs control peptide
Experimental: (§1) RNA extraction and Real Time PCR: Total RNA was extracted using TRIzol® reagent (Invitrogen, Rockville, Md.) 24-36 hours after transfection or as indicated. Harvested mouse tissues were frozen in liquid nitrogen or placed into RNA Later™ RNA Stabilization Reagent (Ambion, Life Technologies, Grand Island, N.Y.). Whole organs (lungs, spleen, kidney, testis, skeletal muscle, brain, heart, and liver) were homogenized in TRIzol® reagent, and RNA was isolated, cDNA was prepared using First Maxima First Strand cDNA Synthesis kit for RT-qPCR (Fermentas Life Sciences, Glen Burnie, Md.). Real Time PCR was performed using the primers listed herein as SEQ ID NOs: 3-34, and SYBR Green PCR master reaction mix (AB applied Sciences, Life Technologies, Grand Island, N.Y.) on an MJ Research OPTICON I instrument (Bio-Rad) with the following amplification program: 95° C. for 15 minutes, followed by 40 cycles of 95° C. for 15 seconds, 58° C. for 20 seconds, 72° C. for 25 seconds, and 7° C. for 1 minute. Melting curves were performed for each product from 30° C. to 95° C. reading every 0.5° C. with a 6-second dwell time. The fold changes in mRNA expression were calculated by normalizing to hypoxanthine phosphoribosyltransferase (HPRT1) and TATA-box binding protein associated factor (TAF9) for mouse tissues and endothelial cells, or β-2 microglobulin (B2M) mRNA levels for spleen and isolated splenocytes. B2M was used for normalization of mRNA levels in human cells. Note that the total RNA yield per cell was higher for all CD47-null and CD47-deficient cells and tissues as compared to WT.
Modulation of stem cell transcription factors by thrombospondin-1: Jurkat and JinB8 cells were centrifuged and re-suspended in RPMI+1% FBS at 10^6 cells/ml. Cells were plated in 12 well plates and treated with 1 μg/ml (2.2 nM) TSP1 using the indicated times and concentrations, and total RNA was isolated using TRIzol® reagent.

HUVEC [1] = assay: MTS proliferation assay of treated HUVEC; assay type: cell-based, human; settings: 6 days post-treatment
Experimental: Cell proliferation assays: Equal numbers of mouse lung endothelial cells from WT and CD47 (Passage 1) were plated in 96 well plates using RPMI+1% FBS. After 72 hours, net cell proliferation was assessed by the increase in formazan absorbance versus controls assessed at time 0 using Cell Titer 96R aqueous MTS kit (Promega, Madison, Wis.). DNA synthesis was measured using a BrdU Assay (EMD Biosciences, Billerica, Mass.).
Proliferative capacities of the treated HUVEC (CD47 morpholino, 7N3 peptide, or 604 control peptide) were assessed using MTS assays.

WT Jurkat T cells = assay: QPCR analysis of c-Myc mRNA in WT Jurkat T cells treated with CD47 binding peptides; assay type: cell-based, human; settings: for c-Myc expression (FIG. 21B): 1 μM or 10 μM
Experimental: FIGS. 21A and B are a pair of graphs showing QPCR analysis of c-Myc mRNA expression. WT Jurkat T cells were treated with the CD47 binding peptide 459 (also known as peptide 4N1) or control peptide 761 at 1 μM or 0.1 μM (FIG. 21A). WT Jurkat T cells were also treated with the CD47-binding peptide 7N3 or the control peptide 604 at 1 μm or 10 μM (FIG. 21B).
as §1

HUVECs = assay: Real-time PCR of HUVECs treated for three weeks with neural medium and 7N3 peptide or B6H12 antibody; assay type: cell-based, human
Experimental: as §1, with “WT. […]” for “WT.”

TSP1 null cells = assay: Sustained proliferation of TSP1 null murine lung endothelial cells; assay type: cell-based, mouse; settings: relative to WT cells
Source text: Cell culture and reagents: Thrombospondin-1 null (Lawler et al., J Clin Invest 101, 982-992, 1998) CD47 null mice (Lindberg et al., Science 274, 795-798, 1996) extensively back-crossed onto a C57Bl/6J background and WT mice were maintained in a pathogen-free environment according to protocols approved by the NCI Animal Care and Use Committee. Mouse lung endothelial cells were isolated and their purity verified as described previously (Zhou et al., Oncogene 25, 536-545, 2006). These conditions were previously documented to reproducibly yield >95% pure endothelial cells at passage two (CD31+, smooth muscle actin-). Mouse lung endothelial cells were cultured at 37° C. with 5% CO2 using Endothelial Growth Medium-2 (EGM2) (Thermo Scientific Fisher. Inc., Waltham, Mass.). Cell populations from mouse spleens were separated using the Pan T cell Isolation (130-095-130), CD4 (L3T4) (130-049-201), CD8a (Ly-2) (130-049-401) CD11b (130-049-601), CD19 microbead kits (130-052-201) (MACS, Miltenyi Biotech Germany).
(§2) Human umbilical vein endothelial cells (HUVEC), which express CD47, normally become senescent with repeated passage in tissue culture (FIG. 16A).

HUVEC [2] = assay: Sustained proliferation / self-renewal of HUVEC in continuous culture; assay type: cell-based, human; settings: 7N3 10 μM; B6H12 1 μg/ml
Source text: as §2
Therefore, antisense suppression of CD47 is sufficient to induce reprogramming of primary endothelial cells of a mesodermal lineage into an ectodermal lineage.

[3] = system: JinB8 cells re-expressing CD47; assay: c-Myc expression in JinB8 cells re-expressing CD47 treated with thrombospondin-1; assay type: cell-based, human; settings: CD47 re-expressed in JinB8 cells
Experimental: JINB8 cells were transfected with CD47-V5 construct using Amaxa™ Nucleofector™ (Lonza) non-viral transfection technology. The transfection efficiency was determined by flow Cytometry. The CD47-V5 transfected cells were purified using magnetic beads bound with human CD47 antibody (B6H12). The transfected cells were loaded onto MACS column which was placed in the magnetic field of a MACS® separator (Miltenyi Biotec). The magnetic bead labeled CD47^+ cells were retained on the column. The unlabeled cells ran through and were depleted from CD47^+ cells. After removal of the column, the CD47^+ cells bound to magnetic beads were eluted. The pure population of CD47^+ cells was stably cultured using G418 (250 μg/ml). The pure population of CD47^+ and Jurkat cells were centrifuged and re-suspended in RPMI with 1% FBS at 10^6 cells/ml. Cells were plated in 12 well plates and treated with 1 μg/ml (2.2 nM) thrombospondin-1, and total RNA was isolated using TRIzol®. The relative gene expression of c-MYC was measured using GAPDH as a control.

Human rTEC = assay: RT-PCR of self-renewal genes in human renal tubular epithelial cells; assay type: cell-based
Experimental: FIG. 25 is a series of graphs showing that blockade of CD47 elevates self-renewal transcription factors in human renal cells. Human rTEC were treated with TSp1 (2.2 nmol/L)±a CD47 monoclonal Ab (clone B6H12, 1 μg/ml) and RT-PCR performed for the indicated targets (top, c-Myc; middle. Sox2; bottom, Klf4). Results are the mean (±S.E.M.) of three separate experiments.
TSP1 inhibits self-renewal signals in primary human renal tubular epithelial cells, and CD47 blockade therapy elevates self renewal genes in human renal cells: It is not clear what role the TSP1-CD47 signal cascade played on self-renewal signaling in specific renal cell types. We wanted to confirm in human cells that activation of CD47 inhibits self-renewal genes. Renal tubular epithelial cells (rTEC) are a primary source of injury in the kidney. Human rTEC were treated with a low concentration of exogenous TSP1 (2.2 nmol/L) and found suppression of self-renewal genes including cMyc and Sox2 and Klf4 (FIG. 25). […] Thus, in human renal cells CD47 blockade increases the stem cell-pluripotent capacity of renal cells.

JinB8 cells = assay: c-Myc mRNA in CD47-deficient JinB8 cells treated with thrombospondin-1; assay type: cell-based, human; settings: Jurkat cells lacking CD47; at 24 hours
Experimental: as §1, with “B2M was used for normalization of mRNA levels in human cells. Note that the total RNA yield per cell was higher for all CD47-null and CD47-deficient cells and tissues as compared to WT.” left out

[4] = real-time PCR, HUVECs three weeks in neural medium, two values per treatment

FIRGGMYEGKK (Synthetic peptide 604) [compound 604]
c-Myc levels (FIG. 7E) (Jurkat T cells): inactive | proliferation (MTS) (HUVEC [1]): decreased proliferation | c-Myc expression (FIG. 21B) (WT Jurkat T cells): did not

FIRVVMYEGKK (Synthetic peptide 7N3)
expression of mRNAs encoding c-Myc and other stem cell transcription factors (Sox2, Klf4, Oct4) and nestin (HUVECs; EBM serum free (neural basal) medium for 3 weeks, in words): high expression | Oct4 C(t) (HUVECs; [4]): 34.48 and 34 | c-Myc C(t) (HUVECs; [4]): 30.19 and 18.49 | klf4 C(t) (HUVECs; [4]): 26.31 and 26.17 | nestin C(t) (HUVECs; [4]): 31.6104 and 31.32 | sox2 C(t) (HUVECs; [4]): 28.09 and 29 | c-Myc levels (FIG. 7E) (Jurkat T cells): suppression | proliferative response (TSP1 null cells): their response was less than the WT cells | proliferation (MTS) (HUVEC [1]): enhanced proliferation | sustained proliferation (HUVEC [2]): dramatically increased | c-Myc expression (FIG. 21B) (WT Jurkat T cells): more dramatic increase

RFYVVMWK (Synthetic peptide - 4N1) [compound 459]
c-Myc mRNA expression (FIG. 21A) (WT Jurkat T cells; 0.1 μM, at 72 hours, relative to control peptide 761): significantly increased

TSP1: Human TSP1 purified from the supernatant of thrombin-activated platelets; CD47 ligand
c-Myc levels, time course (Jurkat T cells; 2.2 nM thrombospondin-1): transiently induced but then strongly inhibited | c-MYC expression (FIG. 14D) (Jurkat T cells; Jurkat cells): reduces c-MYC expression | concentration sufficient to inhibit c-Myc expression (Jurkat T cells; at 24 hours): Picomolar concentrations | c-Myc expression [3]: reduces c-MYC expression | c-Myc expression ([3]; listed as thrombospondin-1): restored the ability of thrombospondin-1 to inhibit c-Myc expression | expression of self-renewal transcription genes (Human rTEC; TSP1 2.2 nM, low passage cells): decreased expression of self-renewal transcription genes | Klf4 expression (Human rTEC; TSP1 2.2 nmol/L, B6H12 1 μg/ml): suppression | Sox2 expression (Human rTEC; TSP1 2.2 nmol/L, B6H12 1 μg/ml): suppression | cMyc expression (Human rTEC; TSP1 2.2 nmol/L, B6H12 1 μg/ml): suppression | c-Myc mRNA levels (JinB8 cells): not significantly inhibited
